The structures appear in SMILES notation.

Chain of active HPK1 (SignalChem M23-11G) (Q92918 1-346 limits assumed): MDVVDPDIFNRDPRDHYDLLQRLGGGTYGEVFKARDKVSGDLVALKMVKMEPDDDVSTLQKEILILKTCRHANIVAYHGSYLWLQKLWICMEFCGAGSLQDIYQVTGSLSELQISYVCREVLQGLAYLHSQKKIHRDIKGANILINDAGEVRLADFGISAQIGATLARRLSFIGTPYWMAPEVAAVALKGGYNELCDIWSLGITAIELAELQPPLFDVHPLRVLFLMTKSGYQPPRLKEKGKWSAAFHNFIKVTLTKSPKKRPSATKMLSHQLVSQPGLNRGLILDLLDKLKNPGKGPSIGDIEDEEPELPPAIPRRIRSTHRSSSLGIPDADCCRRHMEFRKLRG

This experiment concerns the target active HPK1 (SignalChem M23-11G) (Homo sapiens (Human), UniProt Q92918). Description: HPK1 Kinase Binding Assay. Conditions: LanthaScreen tracer 222 / Eu-Anti GST antibody, one hour incubation at 25° C. The method, then:
A stock solution of 1 mM test compound was prepared in DMSO. The compound plate was prepared by 3-fold and 11-point serial dilutions. 0.1 μL of the compound in DMSO was transferred from the compound plate to the white 384 well polystyrene plates. The assay buffer contained 50 mM HEPES, pH 7.5, 0.01% Tween-20, 5 mM MgCl2, 0.01% BSA, and 5 mM DTT. 5 μL of 4 nM active HPK1 (SignalChem M23-11G) prepared in the buffer was added to the plate. The enzyme concentration given was based on the given stock concentration reported by the vender. 5 μl of 18 nM tracer 222 (ThermoFisher PV6121) and 4 nM LanthaScreen Eu-Anti GST antibody (ThermoFisher PV5595) were added. After one hour incubation at 25° C., the plates were read on a PHERAstar FS plate reader (BMG Labtech). Ki values were determined.
Background: TR-FRET usually uses a lanthanide donor and a delayed reading to cut background.
The term Ki denotes a measure of affinity in units of concentration, obtained from inhibition or displacement. A higher Ki goes with lower affinity. Compound `N#Cc1ccccc1-c1nc2c(N3C[C@H](N)C[C@H]3CO)c(NC(=O)c3ccnc(-c4c(F)cccc4F)n3)ccc2n1C1CC1` [Example 5, N-(4-((2S,4R)-4-amino-2-(hydroxymethyl)pyrrolidin-1-yl)-2-(2-cyanophenyl)-1-cyclopropyl-1H-benzo[d]imidazol-5-yl)-2-(2,6-difluorophenyl)pyrimidine-4-carboxamide] registered a Ki of no more than 100 nM.
Take `COc1cccc(F)c1-c1nccc(C(=O)Nc2ccc3c(nc(-c4ccnn4C)n3C)c2N2CCC[C@H]2CN)n1` [Example 19, (S)—N-(4-(2-(Aminomethyl)pyrrolidin-1-yl)-1-methyl-2-(1-methyl-1H-pyrazol-5-yl)-1H-benzo[d]imidazol-5-yl)-2-(2-fluoro-6-methoxyphenyl)pyrimidine-4-carboxamide]: the Ki was no more than 100 nM.
Then `COc1cccc(F)c1-c1nccc(C(=O)Nc2ccc3c(ccn3C)c2N2CCC[C@@H]2CN)n1` [Example 35, (R)—N-(4-(2-(Aminomethyl)pyrrolidin-1-yl)-1-methyl-1H-indol-5-yl)-2-(2-fluoro-6-methoxyphenyl)pyrimidine-4-carboxamide], with no more than 100 nM; and `COc1cc(-n2ccc3c(N4C[C@@H]5C[C@H]4CN5)c(NC(=O)c4ccnc(-c5c(F)cccc5OC)n4)ccc32)ccn1` [Example 44, N-(4-((1S,4S)-2,5-Diazabicyclo[2.2.1]heptan-2-yl)-1-(2-methoxypyridin-4-yl)-1H-indol-5-yl)-2-(2-fluoro-6-methoxyphenyl)pyrimidine-4-carboxamide], with no more than 100 nM.
`COc1cccc(F)c1-c1nccc(C(=O)Nc2ccc3c(ccn3-c3cccc(F)c3C#N)c2N2C[C@@H](N)C[C@H]2CO)n1` [Example 47, N-(4-((2S,4S)-4-Amino-2-(hydroxymethyl)pyrrolidin-1-yl)-1-(2-cyano-3-fluorophenyl)-1H-indol-5-yl)-2-(2-fluoro-6-methoxyphenyl)pyrimidine-4-carboxamide] had a Ki of no more than 100 nM.
With `COc1cccc(F)c1-c1nccc(C(=O)Nc2ccc3c(nc(C)n3C)c2N2CCC[C@H]2CN)n1` [Example 12, (S)—N-(4-(2-(Aminomethyl)pyrrolidin-1-yl)-1,2-dimethyl-1H-benzo[d]imidazol-5-yl)-2-(2-fluoro-6-methoxyphenyl)pyrimidine-4-carboxamide], the inhibition constant Ki is no more than 100 nM.
Next, `COc1cccc(F)c1-c1nccc(C(=O)Nc2ccc3c(ccn3CCN3CCOCC3)c2N2C[C@@H]3C[C@H]2CN3)n1` [Example 43, N-(4-((1S,4S)-2,5-Diazabicyclo[2.2.1]heptan-2-yl)-1-(2-morpholinoethyl)-1H-indol-5-yl)-2-(2-fluoro-6-methoxyphenyl)pyrimidine-4-carboxamide]: no more than 100 nM.
In the case of `Cc1nc2c(N3CCC[C@H]3CN)c(NC(=O)c3ccnc(-c4c(F)cccc4F)n3)ccc2n1C` [Example 32, (S)—N-(4-(2-(Aminomethyl)pyrrolidin-1-yl)-1,2-dimethyl-1H-benzo[d]imidazol-5-yl)-2-(2,6-difluorophenyl)pyrimidine-4-carboxamide], the Ki is no more than 100 nM.
Next, `Cn1c(-c2ccncc2F)nc2c(N3CCNC[C@@H]3CO)c(NC(=O)c3ccnc(-c4c(F)cccc4F)n3)ccc21` [Example 9, (R)-2-(2,6-Difluorophenyl)-N-(2-(3-fluoropyridin-4-yl)-4-(2-(hydroxymethyl)piperazin-1-yl)-1-methyl-1H-benzo[d]imidazol-5-yl)pyrimidine-4-carboxamide]: no more than 100 nM.
Next, `COc1cccc(F)c1-c1nccc(C(=O)Nc2ccc3[nH]ccc3c2N2C[C@@H]3C[C@H]2CN3)n1` [Example 40, N-(4-((1S,4S)-2,5-Diazabicyclo[2.2.1]heptan-2-yl)-1H-indol-5-yl)-2-(2-fluoro-6-methoxyphenyl)pyrimidine-4-carboxamide]: no more than 100 nM; `COC[C@@H](C)n1c(C)nc2c(N3CCC[C@H]3CN)c(NC(=O)c3ccnc(-c4c(F)cccc4OC)n3)ccc21` [Example 22, N-(4-((S)-2-(Aminomethyl)pyrrolidin-1-yl)-1-((R)-1-methoxypropan-2-yl)-2-methyl-1H-benzo[d]imidazol-5-yl)-2-(2-fluoro-6-methoxyphenyl)pyrimidine-4-carboxamide]: no more than 100 nM.
`COc1cccc(F)c1-c1nccc(C(=O)Nc2ccc3c(nc(C)n3C)c2N2C[C@H](N)C[C@H]2CO)n1` [Example 15, N-(4-((2S,4R)-4-Amino-2-(hydroxymethyl)pyrrolidin-1-yl)-1,2-dimethyl-1H-benzo[d]imidazol-5-yl)-2-(2-fluoro-6-methoxyphenyl)pyrimidine-4-carboxamide] showed a Ki of no more than 100 nM.
Compound `COc1cccc(F)c1-c1nccc(C(=O)Nc2ccc3c(nc(C)n3C)c2N2CCC[C@@H]2CO)n1` [Example 14, (R)-2-(2-Fluoro-6-methoxyphenyl)-N-(4-(2-(hydroxymethyl)pyrrolidin-1-yl)-1,2-dimethyl-1H-benzo[d]imidazol-5-yl)pyrimidine-4-carboxamide] came in with a Ki of no more than 100 nM.
In turn, `COc1cccc(F)c1-c1nccc(C(=O)Nc2ccc3c(nc(-c4ccncc4F)n3C)c2N2C[C@@H]3C[C@H]2CO3)n1` [Example 11, N-(4-((1S,4S)-2-Oxa-5-azabicyclo[2.2.1]heptan-5-yl)-2-(3-fluoropyridin-4-yl)-1-methyl-1H-benzo[d]imidazol-5-yl)-2-(2-fluoro-6-methoxyphenyl)pyrimidine-4-carboxamide] displayed a Ki of no more than 100 nM.
Then `COc1cccc(F)c1-c1nccc(C(=O)Nc2ccc3c(nc(C)n3C)c2N2CCC[C@@H]2CN)n1` [Example 13, (R)—N-(4-(2-(Aminomethyl)pyrrolidin-1-yl)-1,2-dimethyl-1H-benzo[d]imidazol-5-yl)-2-(2-fluoro-6-methoxyphenyl)pyrimidine-4-carboxamide], with no more than 100 nM; and `COc1cccc(F)c1-c1nccc(C(=O)Nc2ccc3c(nc(C(C)C)n3C)c2N2C[C@@H]3C[C@H]2CN3)n1` [Example 17, N-(4-((1S,4S)-2,5-Diazabicyclo[2.2.1]heptan-2-yl)-2-isopropyl-1-methyl-1H-benzo[d]imidazol-5-yl)-2-(2-fluoro-6-methoxyphenyl)pyrimidine-4-carboxamide], with no more than 100 nM.
`COc1cccc(F)c1-c1nccc(C(=O)Nc2ccc3c(ccn3C)c2N2C[C@@H](N)C[C@H]2CO)n1` [Example 36, N-(4-((2S,4S)-4-Amino-2-(hydroxymethyl)pyrrolidin-1-yl)-1-methyl-1H-indol-5-yl)-2-(2-fluoro-6-methoxyphenyl)pyrimidine-4-carboxamide]: the Ki was no more than 100 nM.
Then `COc1cccc(F)c1-c1nccc(C(=O)Nc2ccc3c(ncn3C)c2N2CCC[C@H]2CN)n1` [Example 28, (S)—N-(4-(2-(Aminomethyl)pyrrolidin-1-yl)-1-methyl-1H-benzo[d]imidazol-5-yl)-2-(2-fluoro-6-methoxyphenyl)pyrimidine-4-carboxamide], with no more than 100 nM.
Then `COc1cccnc1-c1nc2c(N3C[C@H](N)C[C@H]3CO)c(NC(=O)c3ccnc(-c4c(F)cccc4F)n3)ccc2n1C` [Example 3, N-(4-((2S,4R)-4-Amino-2-(hydroxymethyl)pyrrolidin-1-yl)-2-(3-methoxypyridin-2-yl)-1-methyl-1H-benzo[d]imidazol-5-yl)-2-(2,6-difluorophenyl)pyrimidine-4-carboxamide], with no more than 100 nM.
`COc1cccc(F)c1-c1nccc(C(=O)Nc2ccc3c(ncn3[C@@H]3CCOC3)c2N2CCC[C@H]2CN)n1` [Example 27, N-(4-((S)-2-(Aminomethyl)pyrrolidin-1-yl)-1-((R)-tetrahydrofuran-3-yl)-1H-benzo[d]imidazol-5-yl)-2-(2-fluoro-6-methoxyphenyl)pyrimidine-4-carboxamide] yielded a Ki of no more than 100 nM.
Next, `CN(c1c(NC(=O)c2ccnc(-c3c(F)cccc3F)n2)ccc2c1nc(-c1c(F)cncc1F)n2C)[C@@H]1CCCNC1` [Example 6, (R)-2-(2,6-Difluorophenyl)-N-(2-(3,5-difluoropyridin-4-yl)-1-methyl-4-(methyl(piperidin-3-yl)amino)-1H-benzo[d]imidazol-5-yl)pyrimidine-4-carboxamide]: no more than 100 nM; `COc1cccc(F)c1-c1nccc(C(=O)Nc2ccc3c(nc(-c4ccncc4F)n3C)c2N2CCC[C@H]2CN)n1` [Example 18, (S)—N-(4-(2-(Aminomethyl)pyrrolidin-1-yl)-2-(3-fluoropyridin-4-yl)-1-methyl-1H-benzo[d]imidazol-5-yl)-2-(2-fluoro-6-methoxyphenyl)pyrimidine-4-carboxamide]: no more than 100 nM; `COc1cccc(F)c1-c1nccc(C(=O)Nc2ccc3c(nc(C)n3C)c2-c2ccccc2N)n1` [Example 31, N-(4-(2-Aminophenyl)-1,2-dimethyl-1H-benzo[d]imidazol-5-yl)-2-(2-fluoro-6-methoxyphenyl)pyrimidine-4-carboxamide]: no more than 100 nM.
Next, `COCCc1nc2c(N3CCC[C@H]3CN)c(NC(=O)c3ccnc(-c4c(F)cccc4OC)n3)ccc2n1C` [Example 26, (S)—N-(4-(2-(Aminomethyl)pyrrolidin-1-yl)-2-(2-methoxyethyl)-1-methyl-1H-benzo[d]imidazol-5-yl)-2-(2-fluoro-6-methoxyphenyl)pyrimidine-4-carboxamide]: no more than 100 nM; `COCCn1c(C)nc2c(N3CCC[C@H]3CN)c(NC(=O)c3ccnc(-c4c(F)cccc4OC)n3)ccc21` [Example 21, (S)—N-(4-(2-(Aminomethyl)pyrrolidin-1-yl)-1-(2-methoxyethyl)-2-methyl-1H-benzo[d]imidazol-5-yl)-2-(2-fluoro-6-methoxyphenyl)pyrimidine-4-carboxamide]: no more than 100 nM.
